In PubChem BioAssay (NCI):
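Each compound was tested at five concentrations against cells in 96-well plates for 48 hours. At the TGI there is no net growth.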

system: OVCAR-8 ovarian; experiment: growth of human tumour cells (NCI), 48 h

Row | Compound | TGI
1 | COC(=O)C(NC(=O)c1ccccc1)c1ccco1 (stereo not given) | > 100 µM
2 | Cc1ccc(C)c(COCCOCn2ccc(N)nc2=O)c1 | > 100 µM
3 | CN(C)/C=N/S(=O)(=O)c1nn2c(C=O)c(-c3ccc(Cl)cc3)nc2s1 | 3.2 µM
4 | NNc1nncc2n[nH]nc12 | > 100 µM
5 | COC(=O)C1=C(C(=O)OC)c2cc(OC)ccc2C(C(=S)N(C)C)S1 (stereo not given) | > 100 µM
6 | O=C1CCCC2(c3ccccc3)Nc3ccccc3N12 (stereo not given) | > 100 µM

system: A498 renal; experiment: growth of human tumour cells (NCI), 48 h

Row | Compound | TGI
7 | CC(=O)OC1(C)C=CC(=O)C=C1 | 84 µM
8 | COc1ccc(C2C3=C(Nc4ncnn42)c2ccccc2OC3c2ccccc2)cc1 (stereo not given) | 6.36 µM
9 | O=c1oc2cc(O)ccc2c(O)c1C(c1ccccc1F)c1c(O)c2ccc(O)cc2oc1=O | > 100 µM
10 | COC(=O)C(COC(C)=O)NC(=O)/C=C/c1ccc(O)c(OC(C)=O)c1 (stereo not given) | > 100 µM
11 | CCOP(=O)(CN1CCNCCNCC1)OCC | > 100 µM
12 | CC12CCC([C@H](C(O)C3CCCCC3)C1=O)C2(C)C (stereo not given in full) | > 100 µM
13 | CC(C)Oc1ccc2c(c1)OCC1Cc3ccccc3OC21 (stereo not given) | > 100 µM
14 | COc1cc2c(cc1OC)CCc1cc(OC)c(OC)cc1CC2 | > 100 µM
15 | CC(=O)N[C@@H](Cc1ccc(O)cn1)C(=O)NCc1cccc(Cl)c1 | > 100 µM
16 | Cc1nn(C(=O)Cc2ccccc2)c2c1C(c1ccc(N(C)C)cc1)SC(N)=N2 (stereo not given) | > 100 µM
17 | CNc1nc2n(CCO)c(-c3ccccc3)c(-c3ccccc3)nc-2c(=O)n1 | > 50 µM
18 | COC(=O)C(NC(=O)c1ccccc1)c1ccco1 (stereo not given) | > 100 µM
19 | c1ccc2c(c1)nc1n2CNC1 | > 100 µM
20 | Cc1ccc(C)c(COCCOCn2ccc(N)nc2=O)c1 | > 100 µM
21 | CN(C)/C=N/S(=O)(=O)c1nn2c(C=O)c(-c3ccc(Cl)cc3)nc2s1 | 30.3 µM
22 | NNc1nncc2n[nH]nc12 | > 100 µM
23 | COC(=O)C1=C(C(=O)OC)c2cc(OC)ccc2C(C(=S)N(C)C)S1 (stereo not given) | > 100 µM

system: EKVX NSCLC; experiment: growth of human tumour cells (NCI), 48 h

Row | Compound | TGI
24 | Cc1cc(=O)n2nc(CN3CCCCC3)sc2n1 | > 100 µM
25 | CC(=O)OC1(C)C=CC(=O)C=C1 | > 100 µM
26 | O=c1oc2cc(O)ccc2c(O)c1C(c1ccccc1F)c1c(O)c2ccc(O)cc2oc1=O | > 100 µM
27 | COC(=O)C(COC(C)=O)NC(=O)/C=C/c1ccc(O)c(OC(C)=O)c1 (stereo not given) | > 100 µM
28 | CCOP(=O)(CN1CCNCCNCC1)OCC | > 100 µM
29 | CC12CCC([C@H](C(O)C3CCCCC3)C1=O)C2(C)C (stereo not given in full) | > 100 µM
30 | CC(C)Oc1ccc2c(c1)OCC1Cc3ccccc3OC21 (stereo not given) | > 100 µM
31 | O=C1C(Cl)C(c2cccc(Cl)c2)N1c1ccc(-n2c(=S)[nH]c3ccccc3c2=O)cc1 (stereo not given) | > 100 µM
32 | COc1cc2c(cc1OC)CCc1cc(OC)c(OC)cc1CC2 | > 100 µM
33 | CC(=O)N[C@@H](Cc1ccc(O)cn1)C(=O)NCc1cccc(Cl)c1 | > 100 µM
34 | Cc1nn(C(=O)Cc2ccccc2)c2c1C(c1ccc(N(C)C)cc1)SC(N)=N2 (stereo not given) | > 100 µM
35 | CNc1nc2n(CCO)c(-c3ccccc3)c(-c3ccccc3)nc-2c(=O)n1 | > 50 µM
36 | NC(CCC(=O)O)C(=O)N1CCN(c2nc(N3CCCC3)c3nc(Cl)c(NCc4ccccc4)nc3n2)CC1 (stereo not given) | 27.7 µM
37 | COC(=O)C(NC(=O)c1ccccc1)c1ccco1 (stereo not given) | > 100 µM
38 | c1ccc2c(c1)nc1n2CNC1 | > 100 µM
39 | Cc1ccc(C)c(COCCOCn2ccc(N)nc2=O)c1 | > 100 µM
40 | CN(C)/C=N/S(=O)(=O)c1nn2c(C=O)c(-c3ccc(Cl)cc3)nc2s1 | 12.7 µM
41 | NNc1nncc2n[nH]nc12 | > 100 µM
42 | COC(=O)C1=C(C(=O)OC)c2cc(OC)ccc2C(C(=S)N(C)C)S1 (stereo not given) | > 100 µM
43 | O=C1CCCC2(c3ccccc3)Nc3ccccc3N12 (stereo not given) | > 100 µM

system: MALME-3M melanoma; experiment: growth of human tumour cells (NCI), 48 h

Row | Compound | TGI
44 | Cc1cc(=O)n2nc(CN3CCCCC3)sc2n1 | > 100 µM
45 | COC(=O)C(COC(C)=O)NC(=O)/C=C/c1ccc(O)c(OC(C)=O)c1 (stereo not given) | > 100 µM
46 | CC(C)Oc1ccc2c(c1)OCC1Cc3ccccc3OC21 (stereo not given) | > 100 µM
47 | O=C1C(Cl)C(c2cccc(Cl)c2)N1c1ccc(-n2c(=S)[nH]c3ccccc3c2=O)cc1 (stereo not given) | > 100 µM
48 | COc1cc2c(cc1OC)CCc1cc(OC)c(OC)cc1CC2 | > 100 µM
49 | Cc1nn(C(=O)Cc2ccccc2)c2c1C(c1ccc(N(C)C)cc1)SC(N)=N2 (stereo not given) | > 100 µM
50 | CNc1nc2n(CCO)c(-c3ccccc3)c(-c3ccccc3)nc-2c(=O)n1 | > 50 µM
51 | NC(CCC(=O)O)C(=O)N1CCN(c2nc(N3CCCC3)c3nc(Cl)c(NCc4ccccc4)nc3n2)CC1 (stereo not given) | 33.6 µM
52 | COC(=O)C(NC(=O)c1ccccc1)c1ccco1 (stereo not given) | > 100 µM
53 | Cc1ccc(C)c(COCCOCn2ccc(N)nc2=O)c1 | > 100 µM
54 | CN(C)/C=N/S(=O)(=O)c1nn2c(C=O)c(-c3ccc(Cl)cc3)nc2s1 | 3.2 µM
55 | COC(=O)C1=C(C(=O)OC)c2cc(OC)ccc2C(C(=S)N(C)C)S1 (stereo not given) | > 100 µM
56 | O=C1CCCC2(c3ccccc3)Nc3ccccc3N12 (stereo not given) | > 100 µM

system: SK-MEL-5 melanoma; experiment: growth of human tumour cells (NCI), 48 h

Row | Compound | TGI
57 | Cc1cc(=O)n2nc(CN3CCCCC3)sc2n1 | > 100 µM
58 | CC(=O)OC1(C)C=CC(=O)C=C1 | > 100 µM
59 | COc1ccc(C2C3=C(Nc4ncnn42)c2ccccc2OC3c2ccccc2)cc1 (stereo not given) | 62.7 µM
60 | O=c1oc2cc(O)ccc2c(O)c1C(c1ccccc1F)c1c(O)c2ccc(O)cc2oc1=O | > 100 µM
61 | COC(=O)C(COC(C)=O)NC(=O)/C=C/c1ccc(O)c(OC(C)=O)c1 (stereo not given) | > 100 µM
62 | CCOP(=O)(CN1CCNCCNCC1)OCC | > 100 µM
63 | CC12CCC([C@H](C(O)C3CCCCC3)C1=O)C2(C)C (stereo not given in full) | > 100 µM
64 | CC(C)Oc1ccc2c(c1)OCC1Cc3ccccc3OC21 (stereo not given) | 47.5 µM
65 | O=C1C(Cl)C(c2cccc(Cl)c2)N1c1ccc(-n2c(=S)[nH]c3ccccc3c2=O)cc1 (stereo not given) | 31.4 µM
66 | COc1cc2c(cc1OC)CCc1cc(OC)c(OC)cc1CC2 | > 100 µM
67 | CC(=O)N[C@@H](Cc1ccc(O)cn1)C(=O)NCc1cccc(Cl)c1 | > 100 µM
68 | Cc1nn(C(=O)Cc2ccccc2)c2c1C(c1ccc(N(C)C)cc1)SC(N)=N2 (stereo not given) | > 100 µM
69 | CNc1nc2n(CCO)c(-c3ccccc3)c(-c3ccccc3)nc-2c(=O)n1 | > 50 µM
70 | NC(CCC(=O)O)C(=O)N1CCN(c2nc(N3CCCC3)c3nc(Cl)c(NCc4ccccc4)nc3n2)CC1 (stereo not given) | 20.9 µM
71 | COC(=O)C(NC(=O)c1ccccc1)c1ccco1 (stereo not given) | > 100 µM
72 | c1ccc2c(c1)nc1n2CNC1 | > 100 µM
73 | CN(C)/C=N/S(=O)(=O)c1nn2c(C=O)c(-c3ccc(Cl)cc3)nc2s1 | 2.98 µM
74 | O=C1CCCC2(c3ccccc3)Nc3ccccc3N12 (stereo not given) | > 100 µM

system: PC-3 prostate; experiment: growth of human tumour cells (NCI), 48 h

Row | Compound | TGI
75 | Cc1cc(=O)n2nc(CN3CCCCC3)sc2n1 | > 100 µM
76 | CC(=O)OC1(C)C=CC(=O)C=C1 | > 100 µM
77 | COc1ccc(C2C3=C(Nc4ncnn42)c2ccccc2OC3c2ccccc2)cc1 (stereo not given) | > 100 µM
78 | O=c1oc2cc(O)ccc2c(O)c1C(c1ccccc1F)c1c(O)c2ccc(O)cc2oc1=O | > 100 µM
79 | COC(=O)C(COC(C)=O)NC(=O)/C=C/c1ccc(O)c(OC(C)=O)c1 (stereo not given) | > 100 µM
80 | CCOP(=O)(CN1CCNCCNCC1)OCC | > 100 µM
81 | CC12CCC([C@H](C(O)C3CCCCC3)C1=O)C2(C)C (stereo not given in full) | > 100 µM
82 | CC(C)Oc1ccc2c(c1)OCC1Cc3ccccc3OC21 (stereo not given) | > 100 µM
83 | O=C1C(Cl)C(c2cccc(Cl)c2)N1c1ccc(-n2c(=S)[nH]c3ccccc3c2=O)cc1 (stereo not given) | > 100 µM
84 | COc1cc2c(cc1OC)CCc1cc(OC)c(OC)cc1CC2 | > 100 µM
85 | CC(=O)N[C@@H](Cc1ccc(O)cn1)C(=O)NCc1cccc(Cl)c1 | > 100 µM
86 | Cc1nn(C(=O)Cc2ccccc2)c2c1C(c1ccc(N(C)C)cc1)SC(N)=N2 (stereo not given) | > 100 µM
87 | CNc1nc2n(CCO)c(-c3ccccc3)c(-c3ccccc3)nc-2c(=O)n1 | > 50 µM
88 | NC(CCC(=O)O)C(=O)N1CCN(c2nc(N3CCCC3)c3nc(Cl)c(NCc4ccccc4)nc3n2)CC1 (stereo not given) | 26.9 µM
89 | COC(=O)C(NC(=O)c1ccccc1)c1ccco1 (stereo not given) | > 100 µM
90 | c1ccc2c(c1)nc1n2CNC1 | > 100 µM
91 | Cc1ccc(C)c(COCCOCn2ccc(N)nc2=O)c1 | > 100 µM
92 | CN(C)/C=N/S(=O)(=O)c1nn2c(C=O)c(-c3ccc(Cl)cc3)nc2s1 | 9.38 µM
93 | NNc1nncc2n[nH]nc12 | > 100 µM
94 | COC(=O)C1=C(C(=O)OC)c2cc(OC)ccc2C(C(=S)N(C)C)S1 (stereo not given) | > 100 µM
95 | O=C1CCCC2(c3ccccc3)Nc3ccccc3N12 (stereo not given) | > 100 µM
